Test results reported in US9643980B2, “Benzoxazepin oxazolidinone compounds and methods of use” (Genentech, Inc., priority 2015, dated 2017).
Like-named read-outs stand apart in the source and are kept apart here.

What was measured:
P-PRAS40 SW48(H1047R) = assay: Inhibition of P-PRAS40 in SW48 isogenic cells, PI3Kα mutant H1047R; assay type: cell-based; details: for EC50: Homo sapiens, SW48, 24 hours of compound treatment, read-out: P-PRAS40 SW48(H1047R) EC50; for Fold Selectivity for SW48(H1047R) vs. SW48(parental): EC50 potency ratio, p value (Student t-Test) given
Method: (§1) All statistics were performed using KaleidaGraph Software (version 4.1.3). A Student t-Test was performed using unpaired data with equal variance to compare activity against mutant cells and wild-type cells. P<0.05 is considered to be significant.
(§2) The following assays are intended for determining the cellular potency and mutant selectivity of small molecule PI3Kα inhibitors. […] Mutant selectivity of PI3Kα inhibitors is determined by EC50 potency ratios in the WT vs. E545K cell lines and WT vs. H1047R cell lines.
(§3) The three cell lines (WT, E545K, and H1047R) are plated and assayed in parallel. The following day, test compounds are serially diluted in dimethyl sulfoxide (DMSO) and added to cells (final DMSO concentration 0.5%). […] Cell lysates are added to assay plates pre-coated with antibodies against phosphorylated PRAS40. Phosphorylated PRAS40 in samples are allowed to bind to the capture antibodies overnight at 4° C. The detection antibody (anti-total PRAS40, labeled with an electrochemiluminescent SULFO-TAG) is added to the bound lysate and incubated for 1 hour at room temperature. The MSD Read Buffer is added such that when a voltage is applied to the plate electrodes, the labels bound to the electrode surface emit light. The MSD Sector Instrument measures the intensity of the light, and quantitatively measures the amount of phosphor-PRAS40 in the sample. Percent inhibition of PRAS40 phosphorylation by varying concentrations of test compounds is calculated relative to untreated controls. EC50 values are calculated using the 4 parameter logistic nonlinear regression dose-response model.

PI3Kγ [1] = target: T1, PI3Kγ (Homo sapiens, UniProt P48736); assay: PI3K binding assay (lipid kinase reaction, ADP-Glo), PI3K gamma; assay type: biochemical; details: Table 2A; first value of cell (ADP-Glo, Example 901)
T1 sequence (P48736 whole entry, canonical isoform): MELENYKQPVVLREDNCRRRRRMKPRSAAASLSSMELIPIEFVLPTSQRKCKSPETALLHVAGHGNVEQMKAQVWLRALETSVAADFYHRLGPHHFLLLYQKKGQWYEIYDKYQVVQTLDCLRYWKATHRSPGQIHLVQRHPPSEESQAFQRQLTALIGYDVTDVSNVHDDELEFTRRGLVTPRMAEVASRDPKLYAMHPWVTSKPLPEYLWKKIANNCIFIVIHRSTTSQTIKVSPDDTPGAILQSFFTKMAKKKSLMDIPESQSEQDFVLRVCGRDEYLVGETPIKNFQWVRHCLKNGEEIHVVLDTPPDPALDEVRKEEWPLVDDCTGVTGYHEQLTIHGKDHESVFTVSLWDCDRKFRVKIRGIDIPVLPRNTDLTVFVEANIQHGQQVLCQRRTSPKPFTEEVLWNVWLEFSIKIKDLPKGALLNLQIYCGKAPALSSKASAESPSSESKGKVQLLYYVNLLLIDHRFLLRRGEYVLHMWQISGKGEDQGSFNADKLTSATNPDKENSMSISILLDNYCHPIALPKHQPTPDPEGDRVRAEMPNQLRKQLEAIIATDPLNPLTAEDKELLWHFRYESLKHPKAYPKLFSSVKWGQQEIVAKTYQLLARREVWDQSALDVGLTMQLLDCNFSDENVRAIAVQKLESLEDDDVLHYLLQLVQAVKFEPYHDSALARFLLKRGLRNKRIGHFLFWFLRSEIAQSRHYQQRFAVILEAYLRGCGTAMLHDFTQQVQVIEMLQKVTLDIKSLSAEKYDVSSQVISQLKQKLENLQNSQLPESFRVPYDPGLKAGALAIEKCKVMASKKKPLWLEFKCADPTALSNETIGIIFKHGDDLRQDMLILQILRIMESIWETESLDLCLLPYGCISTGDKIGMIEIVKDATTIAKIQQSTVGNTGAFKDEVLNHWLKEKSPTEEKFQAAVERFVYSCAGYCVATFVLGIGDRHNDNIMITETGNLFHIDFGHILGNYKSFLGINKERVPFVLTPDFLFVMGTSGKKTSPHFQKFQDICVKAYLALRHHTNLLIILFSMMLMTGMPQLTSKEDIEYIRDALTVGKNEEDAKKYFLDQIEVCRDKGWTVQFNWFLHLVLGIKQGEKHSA
Method: (§4) Reactions are carried out using the following conditions for each PI3K isoform as in Table 5.
(§5) All reactions are carried out at room temperature. […] The reaction is started by the addition of 2 μL ATP/MgCl2. The kinase reaction buffer contains 50 mM HEPES, 50 mM NaCl 3 mM MgCl2, 0.01% BSA, 1% DMSO, and enzyme and substrate concentrations as indicated in the above table. The reaction is stopped by the addition of 10 μL ADP-Glo reagent. Plates are read in a Perkin Elmer Envision system using luminescence mode. 10 point dose response curves are generated for each test compound. Ki values for each compound are determined using the Morrison Equation.

[2] = test system: KPL4 cells (PI3Kα mutant H1047R); assay: In vitro cell viability assay (Cell Titer-Glo), KPL4
[3] = test system: MCF7 cells (PI3Kα mutant E545K); assay: In vitro cell viability assay (Cell Titer-Glo), MCF7
[4] = test system: KPL4 breast cancer cell line (PI3Kα mutant H1047R) tumors; details: KPL4 xenograft in SCID mice, daily PO (oral) dosing; for Tolerability / treatment-related body weight loss: all doses; for Inhibition of KPL4 tumor growth in vivo: FIGS. 2A and 2B
Method: (70-72° F.) and 40-60% humidity.
Tumor weight may be estimated with the assumption that 1 mg is equivalent to 1 mm^3 of tumor volume.

PI3Kα = PI3Kα (Homo sapiens, UniProt P42336); assay: PI3K binding assay (lipid kinase reaction, ADP-Glo), PI3K alpha; assay type: biochemical; details: for Ki: first value of cell (ADP-Glo, Example 901), read-out: PI3Kα Ki
Chain of PI3Kα (P42336 whole entry): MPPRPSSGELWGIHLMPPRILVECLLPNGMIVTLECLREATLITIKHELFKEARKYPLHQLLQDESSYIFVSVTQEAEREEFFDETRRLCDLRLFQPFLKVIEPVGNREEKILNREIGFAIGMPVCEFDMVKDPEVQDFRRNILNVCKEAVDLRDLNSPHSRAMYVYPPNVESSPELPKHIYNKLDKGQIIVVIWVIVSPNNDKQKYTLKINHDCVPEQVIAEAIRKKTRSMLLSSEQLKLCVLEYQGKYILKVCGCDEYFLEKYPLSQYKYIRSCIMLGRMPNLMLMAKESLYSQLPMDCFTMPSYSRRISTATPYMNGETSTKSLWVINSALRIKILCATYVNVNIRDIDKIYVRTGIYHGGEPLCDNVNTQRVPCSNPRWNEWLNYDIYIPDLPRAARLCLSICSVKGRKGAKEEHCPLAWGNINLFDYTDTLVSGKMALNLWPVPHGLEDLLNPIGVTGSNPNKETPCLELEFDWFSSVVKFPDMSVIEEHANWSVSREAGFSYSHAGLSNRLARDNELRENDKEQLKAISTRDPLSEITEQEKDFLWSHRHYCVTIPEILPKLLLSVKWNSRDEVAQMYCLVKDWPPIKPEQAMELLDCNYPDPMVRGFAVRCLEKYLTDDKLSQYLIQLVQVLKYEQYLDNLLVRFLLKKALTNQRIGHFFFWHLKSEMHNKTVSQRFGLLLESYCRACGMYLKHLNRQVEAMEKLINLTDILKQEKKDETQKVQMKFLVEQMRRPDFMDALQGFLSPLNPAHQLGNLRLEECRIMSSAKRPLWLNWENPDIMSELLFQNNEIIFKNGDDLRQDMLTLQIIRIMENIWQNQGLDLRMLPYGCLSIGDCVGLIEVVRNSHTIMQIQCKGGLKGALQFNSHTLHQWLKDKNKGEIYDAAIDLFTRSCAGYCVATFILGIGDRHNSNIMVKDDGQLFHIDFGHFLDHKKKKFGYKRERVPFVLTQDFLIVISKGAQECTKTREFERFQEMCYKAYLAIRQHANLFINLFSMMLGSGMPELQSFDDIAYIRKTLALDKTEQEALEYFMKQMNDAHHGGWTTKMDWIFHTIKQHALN
Chain of PI3Kα (P27986 whole entry partner): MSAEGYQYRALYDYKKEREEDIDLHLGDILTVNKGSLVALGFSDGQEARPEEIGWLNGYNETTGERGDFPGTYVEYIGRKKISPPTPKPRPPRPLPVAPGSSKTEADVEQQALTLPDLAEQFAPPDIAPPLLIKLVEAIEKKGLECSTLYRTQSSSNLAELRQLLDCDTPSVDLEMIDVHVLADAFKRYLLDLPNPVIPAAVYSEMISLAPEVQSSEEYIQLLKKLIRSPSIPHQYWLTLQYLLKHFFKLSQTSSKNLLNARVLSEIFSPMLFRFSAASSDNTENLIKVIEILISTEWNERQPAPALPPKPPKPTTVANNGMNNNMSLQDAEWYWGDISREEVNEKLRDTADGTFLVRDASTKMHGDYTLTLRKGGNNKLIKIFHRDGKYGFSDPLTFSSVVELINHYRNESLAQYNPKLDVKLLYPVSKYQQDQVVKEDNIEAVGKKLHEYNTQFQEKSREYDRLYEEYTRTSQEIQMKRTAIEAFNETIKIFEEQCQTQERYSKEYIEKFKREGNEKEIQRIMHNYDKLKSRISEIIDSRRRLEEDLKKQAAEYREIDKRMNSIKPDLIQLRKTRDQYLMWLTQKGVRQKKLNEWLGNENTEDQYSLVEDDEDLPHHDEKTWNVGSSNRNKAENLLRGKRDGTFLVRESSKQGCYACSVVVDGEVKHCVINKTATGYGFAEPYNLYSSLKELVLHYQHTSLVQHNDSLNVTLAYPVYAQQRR
Method: as §4, §5

P-PRAS40 SW48(parental) = assay: Inhibition of P-PRAS40 in SW48 isogenic cells, PI3Kα wild-type (parental); details: Homo sapiens, SW48, 24 h
PI3Kβ [5] = target: T2, PI3Kβ (Homo sapiens, UniProt P42338); assay: PI3K binding assay (lipid kinase reaction, ADP-Glo), PI3K beta; assay type: biochemical; details: Table 2A; first value of cell (ADP-Glo, Example 901)
T2 sequence (P42338 whole entry): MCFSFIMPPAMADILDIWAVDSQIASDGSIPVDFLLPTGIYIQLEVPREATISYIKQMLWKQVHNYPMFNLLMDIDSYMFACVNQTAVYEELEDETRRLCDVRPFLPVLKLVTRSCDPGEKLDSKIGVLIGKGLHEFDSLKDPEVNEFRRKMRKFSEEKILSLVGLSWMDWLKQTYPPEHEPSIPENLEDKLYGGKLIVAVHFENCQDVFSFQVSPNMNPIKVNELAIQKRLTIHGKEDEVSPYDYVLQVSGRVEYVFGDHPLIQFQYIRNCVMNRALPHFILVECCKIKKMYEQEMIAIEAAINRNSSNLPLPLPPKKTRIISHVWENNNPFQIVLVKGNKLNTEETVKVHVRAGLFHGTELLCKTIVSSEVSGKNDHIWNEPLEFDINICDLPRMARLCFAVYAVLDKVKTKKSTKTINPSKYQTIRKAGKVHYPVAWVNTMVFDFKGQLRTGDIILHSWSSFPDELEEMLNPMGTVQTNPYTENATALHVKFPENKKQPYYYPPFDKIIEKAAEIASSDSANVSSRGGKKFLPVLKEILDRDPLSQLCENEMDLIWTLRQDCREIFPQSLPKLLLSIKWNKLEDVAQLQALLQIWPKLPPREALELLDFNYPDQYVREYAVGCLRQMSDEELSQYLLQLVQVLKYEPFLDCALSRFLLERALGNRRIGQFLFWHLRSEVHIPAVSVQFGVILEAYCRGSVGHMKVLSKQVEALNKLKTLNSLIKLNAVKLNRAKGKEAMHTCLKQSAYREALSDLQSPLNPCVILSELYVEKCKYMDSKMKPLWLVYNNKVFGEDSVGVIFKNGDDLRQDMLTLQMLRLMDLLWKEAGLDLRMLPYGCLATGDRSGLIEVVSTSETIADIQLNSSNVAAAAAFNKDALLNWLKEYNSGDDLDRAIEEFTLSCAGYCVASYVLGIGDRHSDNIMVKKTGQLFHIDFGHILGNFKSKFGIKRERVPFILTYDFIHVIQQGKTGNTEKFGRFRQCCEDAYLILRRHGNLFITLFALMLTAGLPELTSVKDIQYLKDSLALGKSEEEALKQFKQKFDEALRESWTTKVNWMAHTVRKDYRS
T2 sequence (P27986 whole entry partner): as the sequence (P27986 whole entry partner) above
Method: as §4, §5

P-PRAS40 SW48(E545K) = assay: Inhibition of P-PRAS40 in SW48 isogenic cells, PI3Kα mutant E545K; assay type: cell-based; details: for EC50: Homo sapiens, SW48, 24 hours of compound treatment, read-out: P-PRAS40 SW48(E545K) EC50; for Fold Selectivity for SW48(E545K) vs. SW48(parental): EC50 potency ratio, p value (Student t-Test) given
Method: as §1, §2, §3

PI3Kδ = PI3Kδ (Homo sapiens, UniProt O00329); assay: PI3K binding assay (lipid kinase reaction, ADP-Glo), PI3K delta; assay type: biochemical; details: Table 2A; first value of cell (ADP-Glo, Example 901)
Chain of PI3Kδ (O00329 whole entry): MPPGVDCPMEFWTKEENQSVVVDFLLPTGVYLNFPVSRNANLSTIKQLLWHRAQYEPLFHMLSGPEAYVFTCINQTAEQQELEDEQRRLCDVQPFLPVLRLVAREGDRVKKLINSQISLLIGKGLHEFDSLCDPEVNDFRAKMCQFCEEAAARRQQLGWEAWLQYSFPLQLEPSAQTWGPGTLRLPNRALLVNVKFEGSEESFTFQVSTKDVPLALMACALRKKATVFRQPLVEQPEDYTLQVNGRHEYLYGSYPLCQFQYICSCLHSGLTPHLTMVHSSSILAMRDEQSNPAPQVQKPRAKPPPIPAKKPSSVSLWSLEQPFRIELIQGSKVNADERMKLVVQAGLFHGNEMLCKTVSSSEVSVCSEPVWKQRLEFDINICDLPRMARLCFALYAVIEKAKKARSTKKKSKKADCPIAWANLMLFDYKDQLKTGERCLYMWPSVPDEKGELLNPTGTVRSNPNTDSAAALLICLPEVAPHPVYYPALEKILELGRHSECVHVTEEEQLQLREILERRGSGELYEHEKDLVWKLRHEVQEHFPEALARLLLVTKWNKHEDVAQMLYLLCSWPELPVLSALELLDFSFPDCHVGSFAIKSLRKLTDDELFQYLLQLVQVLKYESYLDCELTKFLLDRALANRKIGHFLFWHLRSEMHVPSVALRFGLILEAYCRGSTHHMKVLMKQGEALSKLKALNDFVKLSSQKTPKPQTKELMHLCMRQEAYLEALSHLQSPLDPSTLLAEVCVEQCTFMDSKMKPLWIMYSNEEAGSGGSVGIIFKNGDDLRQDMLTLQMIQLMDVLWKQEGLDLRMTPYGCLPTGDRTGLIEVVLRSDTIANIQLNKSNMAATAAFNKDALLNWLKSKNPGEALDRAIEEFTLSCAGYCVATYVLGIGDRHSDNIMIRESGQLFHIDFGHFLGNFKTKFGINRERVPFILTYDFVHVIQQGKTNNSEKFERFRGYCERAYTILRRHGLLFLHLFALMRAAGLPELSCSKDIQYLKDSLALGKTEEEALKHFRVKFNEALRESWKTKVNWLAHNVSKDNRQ
Chain of PI3Kδ (P27986 whole entry partner): as the sequence (P27986 whole entry partner) above
Method: as §4, §5

[6] = test system: HCC1954 cells (PI3Kα mutant H1047R); assay: In vitro cell viability assay (Cell Titer-Glo), HCC1954
PI3Kγ [7] = target: T1, PI3Kγ; assay: Fluorescence polarization (FP) Ki, methods of Example 901 of U.S. Pat. No. 8,242,104, PI3K gamma; details: read-out: PI3Kγ FP Ki; Table 2A; second value of cell after slash (FP)
[8] = test system: locally advanced or metastatic solid tumors; details: phase Ia, single agent; all responses in patients with PIK3CA mutant tumors (Juric D. et al. AACR 2013); cited from earlier work
PI3Kβ [9] = target: T2, PI3Kβ; assay: Fluorescence polarization (FP) Ki, methods of Example 901 of U.S. Pat. No. 8,242,104, PI3K beta; details: read-out: PI3Kβ FP Ki; Table 2A; second value of cell after slash (FP)
[10] = KPL4, 96 h, read-out: KPL4 antiproliferative EC50 (μM)
[11] = Homo sapiens, MCF7, 96 h, read-out: MCF7 antiproliferative EC50 (μM)
[12] = Table 2A, selectivity ratio (fold)
[13] = read-out: P-PRAS40 SW48(parental) EC50 (nM)
[14] = Homo sapiens, HCC1954, 96 h, read-out: HCC1954 antiproliferative EC50 (μM)
[15] = read-out: KPL4 antiproliferative EC50, 4 d incubation, Cell Titer-Glo
[16] = read-out: MCF7 antiproliferative EC50, 4 d incubation, Cell Titer-Glo
[17] = read-out: HCC1954 antiproliferative EC50, 4 d incubation, Cell Titer-Glo

Row | Compound | EC50 [2, 15] | EC50 [3, 16] | EC50 [6, 17] | EC50 (P-PRAS40 SW48(H1047R); Table 3A, geometric mean) | Fold Selectivity for SW48(H1047R) vs. SW48(parental) (P-PRAS40 SW48(H1047R); Table 3A) | Ki (PI3Kγ [1]) | EC50 [2, 10] | EC50 [3, 11] | Tolerability / treatment-related body weight loss [4] | Inhibition of KPL4 tumor growth in vivo [4] | Ki (PI3Kα; Table 2A) | Selectivity for PI3Kα vs. PI3K-β (PI3Kα; [12]) | Selectivity for PI3Kα vs. PI3Kγ (PI3Kα; [12]) | Selectivity for PI3Kα vs. PI3Kδ (PI3Kα; [12]) | EC50 (P-PRAS40 SW48(parental); [13]) | Ki (PI3Kβ [5]) | EC50 (P-PRAS40 SW48(E545K); Table 3A, geometric mean) | Fold Selectivity for SW48(E545K) vs. SW48(parental) (P-PRAS40 SW48(E545K); Table 3A) | Ki (PI3Kδ) | EC50 [6, 14] | further results
1 | NC(=O)[C@@H]1CCCN1c1ccc2c(c1)OCCn1cc(N3C(=O)OC[C@H]3C(F)(F)F)nc1-2 [Compound 103, (S)-1-(2-((S)-2-Oxo-4-(trifluoromethyl)oxazolidin-3-yl)-5,6-dihydrobenzo[f]imidazo[1,2-d][1,4]oxazepin-9-yl)pyrrolidine-2-carboxamide] | – | – | – | 7.1 nM | 2.6 (p = 0.002) | 45 nM | 0.02 µM | 0.38 µM | well tolerated, with no treatment-related body weight loss observed | strongly inhibit the growth of KPL4 tumors in vivo in a dose-dependent manner | 0.155 nM | 698 | 290 | 15 | 18.7 nM | 108 nM | 6.9 nM | 2.7 (p = 0.002) | 2.28 nM | 0.15 µM | –
2 | C[C@H](Oc1ccc2c(c1)OCCn1cc(N3C(=O)OC[C@H]3C(F)(F)F)nc1-2)C(N)=O [Compound 105, (S)-2-((2-((S)-2-Oxo-4-(trifluoromethyl)oxazolidin-3-yl)-5,6-dihydrobenzo[f]imidazo[1,2-d][1,4]oxazepin-9-yl)oxy)propanamide] | – | – | – | 53.6 nM | 3.7 (p = 0.008) | 255 nM | 0.008 µM | 0.05 µM | – | – | 2.75 nM | – | – | – | 199 nM | 661 nM | 62.9 nM | 3.2 (p = 0.012) | 42.2 nM | 0.005 µM | Selectivity for PI3Kα vs. PI3K-β (PI3Kα): 241; Selectivity for PI3Kα vs. PI3Kγ (PI3Kα): 93; Selectivity for PI3Kα vs. PI3Kδ (PI3Kα): 15
3 | C[C@@H]1COC(=O)N1c1cn2c(n1)-c1ccc(N3CCC[C@H]3C(N)=O)cc1OCC2 [Compound 102, (S)-1-(2-((R)-4-Methyl-2-oxooxazolidin-3-yl)-5,6-dihydrobenzo[f]imidazo[1,2-d][1,4]oxazepin-9-yl)pyrrolidine-2-carboxamide] | – | – | – | 16.4 nM | 2.4 (p < 0.001) | 205 nM | 0.05 µM | 0.1 µM | well tolerated, with no treatment-related body weight loss observed | strongly inhibit the growth of KPL4 tumors in vivo in a dose-dependent manner | 0.56 nM | 745 | 366 | 24 | 39.2 nM | 418 nM | 16.6 nM | 2.4 (p < 0.001) | 13.3 nM | 0.48 µM | –

Now from value to compound, other results behind:

Row | EC50 [2, 15] | EC50 [3, 16] | EC50 [6, 17] | Compound | EC50 (P-PRAS40 SW48(H1047R); Table 3A, geometric mean) | Fold Selectivity for SW48(H1047R) vs. SW48(parental) (P-PRAS40 SW48(H1047R); Table 3A) | Ki (PI3Kγ [1]) | EC50 [2, 10] | EC50 [3, 11] | Tolerability / treatment-related body weight loss [4] | Inhibition of KPL4 tumor growth in vivo [4] | Ki (PI3Kα; Table 2A) | Selectivity for PI3Kα vs. PI3K-β (PI3Kα; [12]) | Selectivity for PI3Kα vs. PI3Kγ (PI3Kα; [12]) | Selectivity for PI3Kα vs. PI3Kδ (PI3Kα; [12]) | EC50 (P-PRAS40 SW48(parental); [13]) | Ki (PI3Kβ [5]) | EC50 (P-PRAS40 SW48(E545K); Table 3A, geometric mean) | Fold Selectivity for SW48(E545K) vs. SW48(parental) (P-PRAS40 SW48(E545K); Table 3A) | Ki (PI3Kδ) | EC50 [6, 14] | further results
4 | 0.21 µM | 0.12 µM | 0.75 µM | CS(=O)(=O)N1CCN(Cc2cc3nc(-c4cccc5[nH]ncc45)nc(N4CCOCC4)c3s2)CC1 [pictilisib, 4-(2-(1H-indazol-4-yl)-6-((4-(methylsulfonyl)piperazin-1-yl)methyl)thieno[3,2-d]pyrimidin-4-yl)morpholine, reference compound] | – | – | – | – | – | – | – | – | – | – | – | – | – | – | – | – | – | –
5 | 0.02 µM | 0.02 µM | 0.04 µM | Cc1nc(-c2cn3c(n2)-c2ccc(-c4cnn(C(C)(C)C(N)=O)c4)cc2OCC3)n(C(C)C)n1 [taselisib, 2-(4-(2-(1-isopropyl-3-methyl-1H-1,2,4-triazol-5-yl)-5,6-dihydrobenzo[f]imidazo[1,2-d][1,4]oxazepin-9-yl)-1H-pyrazol-1-yl)-2-methylpropanamide, reference compound] | – | – | – | – | – | – | – | – | – | – | – | – | 53 nM | – | – | – | – | EC50 (P-PRAS40 SW48(H1047R); Table 3B comparator compounds): 4 nM; Ki (PI3Kγ [7]): 0.97 nM; EC50 (P-PRAS40 SW48(parental); read-out: P-PRAS40 SW48(parental) EC50 (μM)): 7.9 nM; Partial responses (PRs) in enrolled patients [8]: 6/34; Ki (PI3Kβ [9]): 9.1 nM; EC50 (P-PRAS40 SW48(E545K); Table 3B comparator compounds): 3.4 nM
